In this assay the target is Nonstructural protein 3 (Zika virus, UniProt A0A024AXB9). Briefly: Functional biochemical assay to identify treatments for viral infectious disease that targets Zika NS2B-NS3 protease. Utilizing a direct enzyme activity measurement method, reading the fluorescence intensity is used to characterize the relative potency of inhibitors as IC50. Set-up: species or system PRVABC59.

Structures are written as SMILES. Where only a bound is given, the exact number is not on record here.

One may read the IC50 as the concentration at which inhibition is half-maximal. High values mean lower potency, low ones higher potency.

Sequence of Nonstructural protein 3 (A0A024AXB9 whole entry): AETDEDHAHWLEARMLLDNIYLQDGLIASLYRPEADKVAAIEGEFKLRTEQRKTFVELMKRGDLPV

Regarding `C[C@H](CC(=O)O)N(C)C(=O)c1cc(Cl)cc(NC(=O)OCc2ccccc2)c1`, the half-maximal inhibitory concentration (IC50) is > 99.5 µM.

For `Clc1ccc2[nH]cc(Cc3ccc(-c4nn[nH]n4)cc3)c2c1`, the IC50 is > 99.5 µM.

`C[C@H](CC(=O)O)NC(=O)c1cc(Cl)cc(NC(=O)OCc2ccccc2)c1`: the concentration for half-maximal inhibition (IC50) was > 99.5 µM.

With `CCc1sc(C(=O)Nc2cccc(-c3nnn[nH]3)c2)cc1C`, the IC50 was > 99.5 µM.

As to `O=C(O)CCc1ccc(NC(=O)c2cc(Cl)cc(C3CC3)c2)cc1`, the IC50 was > 99.5 µM.

On to `CC(C)C[C@H](NC(=O)c1cc(Cl)cc(NC(=O)OCc2ccccc2)c1)c1nnn[nH]1`, for which the IC50 was > 99.5 µM.

Consider `O=C(Nc1cc(Cl)cc(C(=O)Nc2ccccc2[C@@H]2C[C@H]2C(=O)O)c1)OCc1ccccc1`, for which the IC50 was > 99.5 µM.

`NCc1cc(C(=O)N[C@H]2CCCOC2)cc([C@@H]2C[C@H]2c2cc(Cl)cc(NC(=O)OCc3ccccc3)c2)c1` showed an IC50 of 11.4 µM.

As for `Cc1c(C(=O)Nc2cccc(-c3nnn[nH]3)c2)sc2ccccc12`, the half-maximal inhibitory concentration (IC50) is > 99.5 µM.

`O=C(Nc1cc(Cl)cc(C(=O)NC[C@H]2C[C@@H]2C(=O)O)c1)OCc1ccccc1`: the IC50 was > 99.5 µM.

Consider `O=C(Nc1cc(Cl)cc(C(=O)NCc2ccc(-c3nnn[nH]3)cc2)c1)OCc1ccccc1`, for which the IC50 is 68.3 µM.

Take `CC(C)(C)NC(=O)[C@H](Nc1cccc(-c2nn[nH]n2)c1)c1cc(Cl)cc(NC(=O)OCc2ccccc2)c1`: the half-inhibitory concentration (IC50) is 27.8 µM.

For `O=C(Nc1cc(Cl)cc(C(=O)N2CCC[C@H]2c2nnn[nH]2)c1)OCc1ccccc1`, the IC50 was > 99.5 µM.

`C=CC[C@H](Nc1ccc(-c2nn[nH]n2)cc1)c1cc(Cl)cc(NC(=O)OCc2ccccc2)c1` registered an IC50 of 11.3 µM.

Compound `NCc1cc(C(=O)N2CCNC(=O)C2)cc([C@@H]2C[C@H]2c2cc(Cl)cc(NC(=O)OCc3ccccc3)c2)c1` yielded an IC50 of 14.6 µM.

Turning to `O=C(O)c1cccc(NC(=O)c2cc(Cl)cc3[nH]ncc23)c1`, the IC50 was > 99.5 µM.

Compound `O=C(Nc1cc(Cl)cc([C@H]2CN(Cc3ccccc3)C[C@@H]2c2cccc(-c3nn[nH]n3)c2)c1)OCc1ccccc1` displayed an IC50 of 6.87 µM.

Regarding `CCCNC(=O)[C@H](Nc1cccc(-c2nn[nH]n2)c1)c1cc(Cl)cc(NC(=O)OCc2ccccc2)c1`, the midpoint of inhibition, the IC50, lay at 48.5 µM. Compared with the last compound, the IC50 is about 7.1-fold higher.

Compound `CC(C)NC(=O)[C@H](Nc1cccc(-c2nn[nH]n2)c1)c1cc(Cl)cc(NC(=O)OCc2ccccc2)c1` returned a concentration for half-maximal inhibition (IC50) of 60.9 µM.

On to `O=C(Nc1cc(Cl)cc(C(=O)N2CCC(c3nn[nH]n3)CC2)c1)OCc1ccccc1`, for which the IC50 was > 99.5 µM.

`CS(=O)(=O)c1cc(CN)cc([C@@H]2C[C@H]2c2cc(Cl)cc(NC(=O)OCc3ccccc3)c2)c1` yielded an IC50 of 43.3 µM.

For the compound `CCc1[nH]c(-c2ccccc2)cc1C(=O)Nc1cccc(-c2nnn[nH]2)c1`, the IC50 is > 99.5 µM.

`CN(C)C(=O)c1cc(CN)cc([C@@H]2C[C@H]2c2cc(Cl)cc(NC(=O)OCc3ccccc3)c2)c1`: the 50% inhibitory concentration (IC50) came to 11.9 µM.

With `CS(=O)(=O)NC(=O)c1cc(CN)cc(NC(=O)c2cc(Cl)cc(NC(=O)OCc3ccccc3)c2)c1`, it took 7.05 µM to reach half-maximal inhibition (IC50).

In turn, `CC(=Cc1cc(Cl)cc(NC(=O)OCc2ccccc2)c1)c1cccc(CN)c1` registered an IC50 of 5.26 µM. This IC50 and that of the compound before are within 1.5-fold of each other.

With `C#C[C@H](Nc1cccc(C(=O)O)c1)c1cc(Cl)cc2[nH]ncc12`, the 50% inhibitory concentration (IC50) is > 99.5 µM.

With `CCc1cc(C(=O)Nc2cccc(-c3nnn[nH]3)c2)ccc1Cl`, the IC50 was > 99.5 µM.

On to `C[C@H](NC(=O)c1cc(Cl)cc(NC(=O)OCc2ccccc2)c1)C(=O)O`, for which the IC50 was > 99.5 µM.

As to `O=C(Nc1ccc(-n2nn[nH]c2=O)cc1)c1cc(Cl)cc(C2CC2)c1`, the IC50 is > 99.5 µM.

With `Cc1c(C(=O)Nc2cccc(-c3nnn[nH]3)c2)n[nH]c1-c1ccc(Cl)cc1`, the IC50 is > 99.5 µM.

With `COC[C@H](NC(=O)c1cc(Cl)cc(NC(=O)OCc2ccccc2)c1)c1nnn[nH]1`, the IC50 is > 99.5 µM.

With `CC(C)[C@H](NC(=O)c1cc(Cl)cc(NC(=O)OCc2ccccc2)c1)C(=O)O`, the IC50 was > 99.5 µM.

As for `CNC(=O)[C@H](Nc1ccc(-c2nnn[nH]2)cc1)c1cc(Cl)cc(C2CC2)c1`, the concentration for half-maximal inhibition (IC50) was > 99.5 µM.

Take `O=C(Nc1cc(Cl)cc(C(=O)N2CCC[C@H](c3nnn[nH]3)C2)c1)OCc1ccccc1`: the IC50 was > 99.5 µM.

In turn, `O=C(Nc1cc(Cl)cc([C@H](Nc2cccc(-c3nn[nH]n3)c2)C(=O)NCc2ccccc2)c1)OCc1ccccc1` returned an IC50 of 12.8 µM.

For the compound `C=CC[C@H](Nc1cc(Cl)cc(NC(=O)OCc2ccccc2)c1)c1cccc(CN)c1`, the 50% inhibitory concentration (IC50) amounted to 7.69 µM. This IC50 lies about 1.7-fold lower than the previous one.

`O=C(Nc1cccc(-c2nnn[nH]2)c1)c1ccc(-c2cccnc2)s1`: the IC50 was > 99.5 µM.

With `CCOC(=O)[C@H]1[C@H](c2cc(Cl)cc(NC(=O)OCc3ccccc3)c2)[C@H]1c1cccc(-c2nnn[nH]2)c1`, 26.9 µM corresponded to half-maximal inhibition (IC50).

With `O=C(Nc1cc(Cl)cc(C(=O)Nc2cccc3c2OC[C@H](C(=O)O)C3)c1)OCc1ccccc1`, the IC50 is > 99.5 µM.

Turning to `NCc1cc(C(=O)N2CCOCC2)cc([C@@H]2C[C@H]2c2cc(Cl)cc(NC(=O)OCc3ccccc3)c2)c1`, the IC50 was found to be 13.8 µM. That is a double-digit micromolar value.

For `NCc1cc(/C=C/C(=O)O)cc(NC(=O)c2cc(Cl)cc(NC(=O)OCc3ccccc3)c2)c1`, inhibition was half-maximal at 3.17 µM (IC50).

Regarding `CCOC(=O)[C@H]1[C@H](c2cccc(CN)c2)[C@H]1c1cc(Cl)cc(NC(=O)OCc2ccccc2)c1`, it took 17.2 µM to reach half-maximal inhibition (IC50).

Consider `C=CC[C@H](Nc1cccc(C(=O)O)c1)c1cc(Cl)cc2[nH]ncc12`, for which the IC50 was > 99.5 µM.

Consider `Clc1ccc2[nH]cc(Cc3cccc(-c4nn[nH]n4)c3)c2c1`, for which the IC50 was > 99.5 µM.

In turn, `C=CC[C@H](Nc1cc(Cl)cc(NC(=O)OCc2ccccc2)c1)c1ccc(-c2nn[nH]n2)cc1` yielded a half-inhibitory concentration (IC50) of 9.66 µM.

Turning to `CC(C)CNC(=O)[C@H](Nc1cccc(-c2nn[nH]n2)c1)c1cc(Cl)cc(NC(=O)OCc2ccccc2)c1`, the midpoint of inhibition, the IC50, lay at 31.1 µM.

For the compound `O=C(Nc1cc(Cl)cc([C@H](Nc2cccc(-c3nn[nH]n3)c2)C(=O)N[C@H]2CCOC2)c1)OCc1ccccc1`, the IC50 was > 99.5 µM.

`O=C(Nc1cc(Cl)cc(C(=O)NCC[C@H]2C[C@@H]2C(=O)O)c1)OCc1ccccc1`: the IC50 is > 99.5 µM.

As to `CCCn1cc(-c2cc(Cl)cc(NC(=O)OCc3ccccc3)c2)c(C(=O)O)n1`, the IC50 is > 99.5 µM.

In the case of `O=C(Nc1cccc(-n2nn[nH]c2=O)c1)c1cc(Cl)cc(C2CC2)c1`, the IC50 was > 99.5 µM.

Turning to `CCCc1sc(C(=O)Nc2cccc(-c3nnn[nH]3)c2)cc1CC`, the IC50 is > 99.5 µM.

As to `O=C(Nc1cc(Cl)cc(C(=O)Nc2cncc(C(=O)O)c2)c1)OCc1ccccc1`, the IC50 was > 99.5 µM.

The compound `NCc1cc(CO)cc([C@H]2C[C@@H]2c2cc(Cl)cc(NC(=O)OCc3ccccc3)c2)c1` came in with an IC50 of 10.4 µM.

In the case of `O=C(Nc1cc(Cl)cc(-c2ccc3[nH]c(C(=O)O)cc3c2)c1)OCc1ccccc1`, the IC50 was found to be 7.58 µM.

Take `O=C(Nc1cc(Cl)cc(-c2ccn3c(C(=O)O)cnc3c2)c1)OCc1ccccc1`: the IC50 is > 99.5 µM.

As to `O=C(Nc1cc(Cl)cc(-c2ccc3[nH]nc(C(=O)O)c3c2)c1)OCc1ccccc1`, 17.8 µM corresponded to half-maximal inhibition (IC50).

Turning to `O=C(O)Cn1ncc2cc(-c3cc(Cl)cc(NC(=O)OCc4ccccc4)c3)ccc21`, the IC50 is 45.2 µM.

`OCC#C[C@H](Nc1ccc(-c2nnn[nH]2)cc1)c1cc(Cl)cc(C2CC2)c1`: the IC50 was > 99.5 µM.

As for `CCc1nc(C)c(C(=O)Nc2cccc(-c3nnn[nH]3)c2)s1`, the IC50 was > 99.5 µM.

With `C[C@H](C(=O)O)c1cccc(NC(=O)c2cc(Cl)cc(NC(=O)OCc3ccccc3)c2)c1`, the IC50 was > 99.5 µM.

On to `O=C(Nc1cc(Cl)cc(-c2ccc3nc(C(=O)O)ncc3c2)c1)OCc1ccccc1`, for which the IC50 came to 24.7 µM. This counts as double-digit micromolar.

With `NCc1ccc(C(=O)O)c(NC(=O)c2cc(Cl)cc(NC(=O)OCc3ccccc3)c2)c1`, the IC50 was > 99.5 µM.

Turning to `CC(C)CNC(=O)[C@H](Nc1cccc(-c2nnn[nH]2)c1)c1cc(Cl)cc(C2CC2)c1`, the IC50 was > 99.5 µM.

In turn, `CC(=Cc1cccc(CN)c1)c1cc(Cl)cc(NC(=O)OCc2ccccc2)c1` yielded an IC50 of 8.13 µM.

Turning to `O=C(Nc1cc(Cl)cc(C(=O)N[C@H]2CCCC[C@@H]2C(=O)O)c1)OCc1ccccc1`, the IC50 is > 99.5 µM.

As to `O=C(Nc1cc(Cl)cc(-c2cc3cc(C(=O)O)ncn3c2)c1)OCc1ccccc1`, the half-maximal inhibitory concentration (IC50) was > 99.5 µM.

Regarding `O=C(Nc1cc(Cl)cc(C(=O)Nc2cccc(C3(C(=O)O)CCC3)c2)c1)OCc1ccccc1`, the midpoint of inhibition, the IC50, lay at 69 µM.

In the case of `CS(=O)(=O)NC(=O)c1cc(CN)cc([C@@H]2C[C@H]2c2cc(Cl)cc(NC(=O)OCc3ccccc3)c2)c1`, the IC50 is > 99.5 µM.

Consider `N#C[C@H](Nc1ccc(-c2nn[nH]n2)cc1)c1cc(Cl)cc(NC(=O)OCc2ccccc2)c1`, for which the IC50 stood at 19.3 µM.

For `O=C(Nc1cc(Cl)cc(C(=O)Nc2cc(C(=O)O)ccn2)c1)OCc1ccccc1`, the IC50 was > 99.5 µM.

In the case of `CNC(=O)[C@H](Nc1cc(Cl)cc(NC(=O)OCc2ccccc2)c1)c1ccc(-c2nn[nH]n2)cc1`, the IC50 is > 99.5 µM.

In the case of `COCCNC(=O)[C@H](Nc1cccc(-c2nn[nH]n2)c1)c1cc(Cl)cc(NC(=O)OCc2ccccc2)c1`, the half-maximal inhibitory concentration (IC50) was > 99.5 µM.

Compound `CC(=Cc1cccc(-c2nnn[nH]2)c1)c1cc(Cl)cc(NC(=O)OCc2ccccc2)c1` yielded an IC50 of 12.1 µM.

On to `CCc1cc(C(=O)Nc2cccc(-c3nnn[nH]3)c2)sc1C`, for which the half-maximal inhibitory concentration (IC50) is > 99.5 µM.

On to `O=C(O)CCc1cccc(NC(=O)c2cc(Cl)cc(NC(=O)OCc3ccccc3)c2)c1`, for which the IC50 is > 99.5 µM.

Compound `NCc1cccc(N[C@H](CCCO)c2cc(Cl)cc(NC(=O)OCc3ccccc3)c2)c1` had an IC50 of 62.3 µM.

As to `CNC(=O)[C@H](Nc1cccc(-c2nnn[nH]2)c1)c1cc(Cl)cc(C2CC2)c1`, the IC50 is > 99.5 µM.

`O=C(Nc1cc(Cl)cc(N[C@H](C#CCO)c2ccc(-c3nn[nH]n3)cc2)c1)OCc1ccccc1`: the IC50 was determined as 52.4 µM.

Compound `N#C[C@H](Nc1cc(Cl)cc(NC(=O)OCc2ccccc2)c1)c1ccc(-c2nn[nH]n2)cc1` had an IC50 of 16.8 µM.

Take `CNC(=O)[C@H](Nc1ccc(-c2nn[nH]n2)cc1)c1cc(Cl)cc(NC(=O)OCc2ccccc2)c1`: the 50% inhibitory concentration (IC50) is > 99.5 µM.

As to `O=C(Nc1cc(Cl)cc(C(=O)Nc2ccc([C@@H]3C[C@H]3C(=O)O)cc2)c1)OCc1ccccc1`, the IC50 was 44.3 µM. This counts as double-digit micromolar.

As for `CCc1cc(C(=O)Nc2cccc(-c3nnn[nH]3)c2)nn1-c1ccccc1`, the 50% inhibitory concentration (IC50) is > 99.5 µM.

These data come from ChEMBL document CHEMBL5604062, “ASAP - ZIKV NS2B-NS3 protease fluorescence dose response” (2024).
